Source: patent publication US9220795B2, “Indole derivatives” (priority 2011, dated 2015)

What was measured:
Wistar rat heart PBR = biological target: T1, Wistar rat heart PBR (Rattus norvegicus, UniProt P16257); assay: In vitro potency assay: competition for binding to PBR against 0.3 nM [3H]PK-11195; conditions: non-radioactive analogues; vs 0.3 nM [3H]PK-11195; 15 minutes at 25° C.; 6 concentrations
T1 construct: from tissue; host or cells: Wistar rat heart
Description: Affinity for PBR was screened using a method adapted from Le Fur et al (Life Sci. 1983; USA 33: 449-57). Non-radioactive analogues of in vivo imaging agents of the invention were tested along with a non-radioactive analogue of a previous tetracyclic indole imaging agent (from co-pending patent application PCT/EP2009/062827; synthesis described in Example 17 below):
Each test compound (dissolved in 50 mM Tris-HCl, pH 7.4, 10 mM MgCl2 containing 1% DMSO) competed for binding to Wistar rat heart PBR against 0.3 nM [^3H] PK-11195. The reaction was carried out in 50 mM Tris-HCl, pH 7.4 10 mM MgCl2 for 15 minutes at 25° C.

[1] = In vivo biodistribution method; set-up: species or system Adult male Wistar rats; conditions: for Brain 2 min (% ID/g): 2 min after injection via lateral tail vein, 1-3 MBq, n=3; for % Activity in Brain = Parent @ 60 min: 60 min after injection; for OB 30 min (% ID/g): olfactory bulb, 30 min after injection; for OB: Str 30 min: ratio olfactory bulb to striatum at 30 min; for Str 2: 30 min: ratio striatum 2 min to 30 min
Description: Imaging agents of the invention were tested in an in vivo biodistribution model along with a previous tetracyclic imaging agent (from co-pending patent application PCT/EP2009/062827; synthesis described in Example 18 below).

For `CN(Cc1ccccc1)C(=O)C1CCCc2c1c1ccccc1n2CCF` (stereo not drawn) [Imaging agent 7, 9-(2-[^18F]fluoro-ethyl)-2,3,4,9-tetrahydro-1H-carbazole-4-carboxylic acid benzyl-methyl-amide], which Ki (Wistar rat heart PBR) is on record?
The Ki was 1.25 nM.

With `CCN(CC)C(=O)C1CCCc2c1c1c(F)cccc1n2CC[18F]` (stereo not drawn) [Imaging agent 10, 5-Fluoro-9-(2-[^18F]fluoro-ethyl)-2,3,4,9-tetrahydro-1H-carbazole-4-carboxylic acid diethylamide] as the molecule, how does the “Brain 2 min (% ID/g)” value [1] read?
The value was 0.50 % ID/g.

And the “% Activity in Brain = Parent @ 60 min” value [1]?
Its value is 92.70%.

And the “OB 30 min (% ID/g)” value [1]?
The value was 0.51 % ID/g.

For `CN(Cc1ccccc1)C(=O)C1CCCc2c1c1ccccc1n2CC[18F]` (stereo not drawn) [Imaging agent 7, 9-(2-[^18F]fluoro-ethyl)-2,3,4,9-tetrahydro-1H-carbazole-4-carboxylic acid benzyl-methyl-amide], which “Brain 2 min (% ID/g)” value [1] is on record?
The value was 0.55 % ID/g.

And the “% Activity in Brain = Parent @ 60 min” value [1]?
The value was 81.28%.

And the “OB 30 min (% ID/g)” value [1]?
The value was 0.34 % ID/g.

What about the “OB: Str 30 min” value [1] of the same molecule?
The value was 3.40.

And the “Str 2: 30 min” value [1]?
The value was 4.70.

For `CCN(CC)C(=O)C1Sc2ccccc2-c2c1c1cc(OC)ccc1n2CCF` (racemic) [tetracyclic indole, (+−)-11-(2-[^18F]fluoroethyl)-8-methoxy-6,11-dihydro-5-thia-11-aza-benzo[a]fluorene-6-carboxylic acid diethyl amide, reference compound], which Ki (Wistar rat heart PBR) is on record?
The Ki was 0.369 nM.

Which Ki (Wistar rat heart PBR) does the source give for `CCN(CC)C(=O)C1CC(C)Cc2c1c1ccccc1n2CCF` (stereo not drawn) [Imaging agent 11, 9-(2-[^18F]-Fluoro-ethyl)-2-methyl-2,3,4,9-tetrahydro-1H-carbazole-4-carboxylic acid diethylamide] here?
Its Ki is 2.12 nM.

With `CCN(CC)C(=O)C1Sc2ccccc2-c2c1c1cc(OC)ccc1n2CC[18F]` (racemic) [tetracyclic indole, (+−)-11-(2-[^18F]fluoroethyl)-8-methoxy-6,11-dihydro-5-thia-11-aza-benzo[a]fluorene-6-carboxylic acid diethyl amide, reference compound] as the molecule, how does the “Brain 2 min (% ID/g)” value [1] read?
The value was 0.32 % ID/g.

What about the “% Activity in Brain = Parent @ 60 min” value [1] of the same molecule?
The value was 96.00%.

And the “OB 30 min (% ID/g)” value [1]?
Its value is 0.31 % ID/g.

And the “OB: Str 30 min” value [1]?
The value was 2.07.

And the “Str 2: 30 min” value [1]?
Its value is 1.73.

For `CCN(CC)C(=O)C1CCCc2c1c1cc(F)ccc1n2CCF` (stereo not drawn) [Imaging agent 9, 6-Fluoro-9-(2-[^18F]fluoro-ethyl)-2,3,4,9-tetrahydro-1H-carbazole-4-carboxylic acid diethylamide], which Ki (Wistar rat heart PBR) is on record?
Its Ki is 3.79 nM.

For `CCN(CC)C(=O)C1CCCc2c1c1cc(F)ccc1n2CC[18F]` (stereo not drawn) [Imaging agent 9, 6-Fluoro-9-(2-[^18F]fluoro-ethyl)-2,3,4,9-tetrahydro-1H-carbazole-4-carboxylic acid diethylamide], which “Brain 2 min (% ID/g)” value [1] is on record?
The value was 0.56 % ID/g.

And the “% Activity in Brain = Parent @ 60 min” value [1]?
The value was 84.30%.

What about the “OB 30 min (% ID/g)” value [1] of the same molecule?
The value was 0.41 % ID/g.

Which Ki (Wistar rat heart PBR) does the source give for `CCN(CC)C(=O)C1CCCc2c1c1c(OC)cccc1n2CCF` (stereo not drawn) [Imaging agent 5, 9-(2-[^18F]-Fluoro-ethyl)-5-methoxy-2,3,4,9-tetrahydro-1H-carbazole-4-carboxylic acid diethylamide] here?
The Ki was 2.35 nM.

What does the source list for `CCN(CC)C(=O)C1CC(C)Cc2c1c1ccccc1n2CC[18F]` (stereo not drawn) [Imaging agent 11, 9-(2-[^18F]-Fluoro-ethyl)-2-methyl-2,3,4,9-tetrahydro-1H-carbazole-4-carboxylic acid diethylamide]?
Brain 2 min (% ID/g) [1]: 0.51 % ID/g; % Activity in Brain = Parent @ 60 min [1]: 90.37%; OB 30 min (% ID/g) [1]: 0.42 % ID/g; OB: Str 30 min [1]: 3.50; Str 2: 30 min [1]: 3.33

With `O=C(C1CCCc2c1c1ccccc1n2CCF)N1CCCCC1` (stereo not drawn) [Imaging agent 6, [9-(2-[^18F]-Fluoro-ethyl)-2,3,4,9-tetrahydro-1H-carbazol-4-yl]-piperidin-1-yl-methanone] as the molecule, how does the Ki (Wistar rat heart PBR) read?
Its Ki is 18.3 nM.
